We go through one compound from US20260217670A1, “CRYSTAL FORM OF BAXDROSTAT, AND PREPARATION METHOD THEREFOR AND USE THEREOF” (CRYSTAL PHARMACEUTICAL (SUZHOU) CO., LTD., priority 2023, published 2026).

Holding throughout (assay type): physicochemical
A short description of data set [1]: DVS weight gain at various humidity (hygroscopicity / humidity stability). As for the experimental part:
Purge gas: N2DVS data in the present disclosure were measured via an SMS (Surface Measurement Systems Ltd.) intrinsic DVS instrument. The instrument control software is DVS-Intrinsic control software. Typical parameters for DVS test are as follows: • Temperature: 25° C. • Gas and flow rate: N2, 200 mL/min • RH range: 0% RH to 95% RH
A certain amount of Form CSI was used to test the weight gain at various humidity by a DVS instrument. The weight gains at each relative humidity were recorded in a cycle of 60% RH-95% RH-0% RH-95% RH-0% RH. […] The XRPD overlay before and after DVS test is substantially as depicted in FIG. 11.

The nature of data set [2]: Storage stability of Form CSI, purity by HPLC and crystalline form by XRPD. As for the experimental part: (§1) XRPD patterns in the present disclosure were acquired by a Bruker D8 DISCOVER X-ray powder diffractometer. The parameters of the X-ray powder diffraction method of the present disclosure are as follows: • X-Ray source: Cu, Kα • Kα1 (Å): 1.54060; Kα2 (Å): 1.54439 • Kα2/Kα1 intensity ratio: 0.50 • Voltage: 40 kV • Current: 40 mA • Scan range (20): from 4.0 degree to 40.0 degree
A certain amount of Form CSI prepared by the present disclosure was stored under conditions of 25° C./60% RH, 40° C./75% RH and 60° C./75% RH. The purity and crystalline form were checked by HPLC and XRPD. The results are listed in Table 3, and the XRPD overlay is substantially as depicted in FIG. 7 and FIG. 8. […] Under 60° C./75% RH, it remains stable for at least 1 month with its purity also essentially unchanged, indicating very good stability even under stress conditions.

Data set [3] is described as follows: Wet ball milling (grinding stability). The following applies: for Solid form after grinding: wet ball milling, 1800 rpm for 10 min. As for the experimental part: as §1
A certain amount of Form CSI solid was placed in a centrifuge tube, and about 10 μL of corresponding solvent was added inside, along with a 5 mm grinding ball. The centrifuge tube containing the sample was installed on the GT300 vibration ball mill and subjected to wet ball milling at 1800 rpm for 10 min.

[4] abbreviates: 25° C./60% RH, Open package, 6 months.
Setting [5] is: 25° C./60% RH, Sealed package, 6 months.
[6] abbreviates: 40° C./75% RH, Open package, 6 months.
Where [7] appears, read: 40° C./75% RH, Sealed package, 6 months.
The mark [8] stands for this setting: 60° C./75% RH, Open package, 1 month.
Where [9] appears, read: 60° C./75% RH, Sealed package, 1 month.
Setting [10] is: wet ball milling at 1800 rpm for 10 min, water or ethanol.

Regarding `CCC(=O)N[C@@H]1CCCc2c(-c3ccc4c(c3)CCC(=O)N4C)cncc21` [Form CSI, (+)-(R)—N-(4-(1-methyl-2-oxo-1,2,3,4-tetrahydroquinolin-6-yl)-5,6,7,8-tetrahydroisoquinolin-8-yl) propionamide], the “Form change before and after DVS test (XRPD)” value in data set [1] (cycle of 60% RH-95% RH-0% RH-95% RH-0% RH) is “No form change”. Also, the Weight gain in data set [1] (from 60% RH to 80% RH, DVS, 25° C.) came to 0.34%. The entries for the “Time Form CSI remains stable with purity essentially unchanged” value in data set [2] (25° C./60% RH), in data set [2] (40° C./75% RH) and in data set [2] (60° C./75% RH) were “at least 6 months”, “at least 6 months” and “at least 1 month”, respectively. Moreover, the Purity in data set [2] (setting [4]) is recorded as 99.27%; in data set [2] (setting [5]), 99.22%; in data set [2] (setting [6]), 99.26%; in data set [2] (setting [7]), 99.21%; in data set [2] (setting [8]), 99.26%; in data set [2] (setting [9]) it was 99.24%. The Purity in data set [2] (Initial) was 99.23%. The Solid form result in data set [2] (setting [4]), in data set [2] (setting [5]), in data set [2] (setting [6]), in data set [2] (setting [7]), in data set [2] (setting [8]) and in data set [2] (setting [9]) was “Form CSI” in each case. Moreover, the Solid form entry in data set [2] (Initial) is “Form CSI”. For the same compound, the “Crystalline form before and after wet ball milling” value in data set [3] (setting [10]) was “remains unchanged”. Moreover, the “Crystallinity after wet ball milling” value in data set [3] (setting [10]) is reported as “no significant decrease”. In addition, the “Solid form after grinding” value in data set [3] (Ethanol) and in data set [3] (Water) was “Form CSI” each time.
